Test results taken from PubChem BioAssay (NCI).
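GI50 = concentration required for 50% inhibition of growth. Definition used: TGI = concentration required for complete inhibition of growth.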

Assays:
Assay in all cases: DTP human tumour cell line panel, 384-well format
[1] = system: HL-60(TB) leukemia
[2] = system: A498 renal
[3] = system: MDA-MB-435 melanoma
[4] = system: MDA-MB-468 breast
[5] = system: COLO 205 colon
[6] = system: LOX IMVI melanoma
[7] = system: SF-295 CNS
[8] = system: 786-0 renal
[9] = system: SK-OV-3 ovarian
[10] = system: NCI/ADR-RES ovarian
[11] = system: SF-268 CNS
[12] = system: OVCAR-5 ovarian
[13] = system: OVCAR-4 ovarian
[14] = system: SK-MEL-28 melanoma
[15] = system: SN12C renal
[16] = system: CCRF-CEM leukemia
[17] = system: DU-145 prostate
[18] = system: SW-620 colon
[19] = system: SR leukemia
[20] = system: M14 melanoma
[21] = system: MCF7 breast
[22] = system: HCT-116 colon
[23] = system: NCI-H522 lung
[24] = system: SK-MEL-5 melanoma
[25] = system: NCI-H460 NSCLC
[26] = system: SNB-19 CNS
[27] = system: NCI-H226 lung
[28] = system: MALME-3M melanoma
[29] = system: K-562 leukemia
[30] = system: KM12 colon
[31] = system: ACHN renal
[32] = system: UACC-62 melanoma
[33] = system: OVCAR-8 ovarian
[34] = system: HCT-15 colon
[35] = system: RXF 393 renal
[36] = system: HT29 colon
[37] = system: IGROV1 ovarian
[38] = system: HOP-62 NSCLC
[39] = system: TK-10 renal
[40] = system: CAKI-1 renal
[41] = system: NCI-H23 lung
[42] = system: UO-31 renal
[43] = system: SK-MEL-2 melanoma
[44] = system: MDA-MB-231 breast
[45] = system: U251 glioblastoma
[46] = system: HCC-2998 colon
[47] = system: HOP-92 NSCLC
[48] = system: BT-549 breast
[49] = system: UACC-257 melanoma
[50] = system: A549 NSCLC
[51] = system: RPMI-8226 leukemia
[52] = system: PC-3 prostate
[53] = system: OVCAR-3 ovarian
[54] = system: NCI-H322M lung
[55] = system: MOLT-4 leukemia
[56] = system: T-47D breast
[57] = system: SF-539 CNS
[58] = system: SNB-75 CNS
[59] = system: EKVX NSCLC
[60] = system: HS 578T breast

## CCN1[C@@H](C(=O)NC23CCC(C(=O)O)(CC2)CC3)[C@H](c2cccc(Cl)c2F)[C@]2(C(=O)Nc3cc(Cl)ccc32)C12CCCCC2
[1]
  GI50: 2030 nM
  TGI: 3460 nM
[2]
  GI50: 13.6 nM
  TGI: 1090 nM
[3]
  GI50: 2260 nM
  TGI: 5650 nM
[4]
  GI50: 1700 nM
  TGI: 3610 nM
[5]
  GI50: 2200 nM
  TGI: 4460 nM
[6]
  GI50: 323 nM
  TGI: 1840 nM
[7]
  GI50: 1240 nM
  TGI: 2670 nM
[8]
  GI50: 3490 nM
  TGI: 13500 nM
[9]
  GI50: 2960 nM
  TGI: 13700 nM
[10]
  GI50: 3640 nM
  TGI: 13600 nM
[11]
  GI50: 2340 nM
  TGI: 6800 nM
[12]
  GI50: 1920 nM
  TGI: 4660 nM
[13]
  GI50: 2220 nM
  TGI: 7320 nM
[14]
  GI50: 2760 nM
  TGI: 7420 nM
[15]
  GI50: 3530 nM
  TGI: 12700 nM
[16]
  GI50: 1420 nM
  TGI: 2750 nM
[17]
  GI50: 3390 nM
  TGI: 12300 nM
[18]
  GI50: 3790 nM
  TGI: 13400 nM
[19]
  GI50: < 10 nM
[20]
  GI50: 35 nM
  TGI: 2370 nM
[21]
  GI50: 26.9 nM
  TGI: 1120 nM
[22]
  GI50: 30.3 nM
  TGI: 1490 nM
[23]
  GI50: 2410 nM
  TGI: 6920 nM
[24]
  GI50: 239 nM
  TGI: 1810 nM
[25]
  GI50: 29.4 nM
  TGI: 1080 nM
[26]
  GI50: 3090 nM
  TGI: 12800 nM
[27]
  GI50: < 10 nM
  TGI: 81.7 nM
[28]
  GI50: 14 nM
  TGI: 659 nM
[29]
  GI50: 2830 nM
  TGI: 11000 nM
[30]
  GI50: 2870 nM
  TGI: 9120 nM
[31]
  GI50: 19.4 nM
  TGI: 390 nM
[32]
  GI50: < 10 nM
  TGI: 364 nM
[33]
  GI50: 3000 nM
  TGI: 11400 nM
[34]
  GI50: 2660 nM
  TGI: 10100 nM
[35]
  GI50: 1020 nM
  TGI: 2560 nM
[36]
  GI50: 3520 nM
  TGI: 13900 nM
[37]
  GI50: 244 nM
  TGI: 2770 nM
[38]
  GI50: 1590 nM
  TGI: 4190 nM
[39]
  GI50: 2890 nM
  TGI: 11400 nM
[40]
  GI50: < 10 nM
  TGI: 418 nM
[41]
  GI50: 1490 nM
  TGI: 3950 nM
[42]
  GI50: 19.3 nM
  TGI: 161 nM
[43]
  GI50: 638 nM
  TGI: 2160 nM
[44]
  GI50: 3130 nM
  TGI: 14200 nM
[45]
  GI50: 3070 nM
  TGI: 11500 nM
[46]
  GI50: 1270 nM
  TGI: 2910 nM
[47]
  GI50: 1770 nM
  TGI: 4430 nM
[48]
  GI50: 1930 nM
  TGI: 6160 nM
[49]
  GI50: 148 nM
  TGI: 431 nM
[50]
  GI50: 45.2 nM
  TGI: 1140 nM
[51]
  GI50: 1260 nM
  TGI: 2510 nM
[52]
  GI50: 2880 nM
  TGI: 9400 nM
[53]
  GI50: 1440 nM
  TGI: 2900 nM
[54]
  GI50: 3870 nM
  TGI: 15100 nM
[55]
  GI50: < 10 nM
[56]
  GI50: 1620 nM
  TGI: 6270 nM
[57]
  GI50: 2120 nM
  TGI: 5190 nM

## COc1cc(F)ccc1-c1cc(Nc2cc(CS(C)(=N)=O)ccn2)ncc1F (stereo not drawn)
[1]
  GI50: 15.4 nM
  TGI: 29.4 nM
[2]
  GI50: 27 nM
  TGI: > 100000 nM
[4]
  GI50: 58.7 nM
  TGI: 193 nM
[58]
  GI50: 50.9 nM
  TGI: 201 nM
[7]
  GI50: 35.3 nM
  TGI: 180 nM
[11]
  GI50: 17.1 nM
  TGI: 44.5 nM
[13]
  GI50: 165 nM
  TGI: 889 nM
[14]
  GI50: 30.4 nM
  TGI: 167 nM
[15]
  GI50: 23.3 nM
  TGI: 121 nM
[16]
  GI50: 17.6 nM
  TGI: 36.2 nM
[17]
  GI50: 29.1 nM
  TGI: 92.5 nM
[18]
  GI50: 43.7 nM
  TGI: 475 nM
[20]
  GI50: 34.7 nM
  TGI: 157 nM
[23]
  GI50: 149 nM
  TGI: 385 nM
[24]
  GI50: 28.3 nM
  TGI: 109 nM
[26]
  GI50: 44.6 nM
  TGI: > 100000 nM
[28]
  GI50: 50.3 nM
  TGI: 178 nM
[29]
  GI50: 136 nM
  TGI: 567 nM
[30]
  GI50: 23.7 nM
  TGI: 73.5 nM
[59]
  GI50: 73.9 nM
  TGI: 498 nM
[32]
  GI50: 17.1 nM
  TGI: 49.2 nM
[33]
  GI50: 30.5 nM
  TGI: 112 nM
[34]
  GI50: 38.7 nM
  TGI: > 100000 nM
[35]
  GI50: 16 nM
  TGI: 37.6 nM
[36]
  GI50: 65.1 nM
  TGI: 257 nM
[37]
  GI50: 33.7 nM
  TGI: > 100000 nM
[38]
  GI50: 18.3 nM
  TGI: 45.5 nM
[40]
  GI50: 28.2 nM
  TGI: > 100000 nM
[41]
  GI50: 30.4 nM
  TGI: 130 nM
[45]
  GI50: 43.3 nM
  TGI: > 100000 nM
[46]
  GI50: 37.9 nM
  TGI: 207 nM
[47]
  GI50: 62.9 nM
  TGI: 46000 nM
[60]
  GI50: 15.5 nM
  TGI: 41.6 nM
[48]
  GI50: 26.2 nM
  TGI: 74 nM
[49]
  GI50: 104 nM
  TGI: 251 nM
[50]
  GI50: 42.9 nM
  TGI: > 100000 nM
[51]
  GI50: 41 nM
  TGI: 138 nM
[52]
  GI50: 39.9 nM
  TGI: 250 nM
[53]
  GI50: 24.2 nM
  TGI: 80.1 nM
[54]
  GI50: 29.2 nM
  TGI: 134 nM
[55]
  GI50: 27.3 nM
  TGI: 89.1 nM
[56]
  GI50: 46.2 nM
  TGI: > 100000 nM
[57]
  GI50: 26.3 nM
  TGI: 69 nM
